Test results as given in US20210015793A1, “COMPOUNDS FOR TREATING CNS- AND NEURODEGENERATIVE DISEASES” (ETH ZURICH, priority 2018, published 2021).

Tested on: Tg2576 AD mice
Assay: Abeta plaque load by immunohistology (BAM-10) in Tg2576 mice
Format: in vivo, mouse
Conditions: 18-month-old Tg2576 mice, 8 mg/kg/d in drinking water for 6 months, vs untreated Tg2576 controls
Description: For a genetic model of familial AD (FAD), Tg2576 mice (Taconic Biosciences, Rensselaer, N.Y., USA) were used with neuron-specific overexpression of human APPSwe, i.e the Swedish mutation of APP695 isolated from a Swedish family with FAD featuring the double mutation K670N/M671L (Hsiao et al., Science 274, 99-103 (1996)). As a genetic model of tauopathy, the Tg-TauP301L mice (Model 2508, Taconic Biosciences, Rensselaer, N.Y., USA) with neuron-specific expression of the most common FTDP-17 (frontotemporal dementia and parkinsonism linked to chromosome 17) mutation (Lewis et al., Nature Genetics 25, 402-405 (2000)) were used. To enhance neurodegeneration and neuronal loss, the CUMS (chronic unpredictable mild stress) protocol was performed with male 12 months-old Tg2576 mice for 3 months essentially as described (AbdAlla et al., J. Biol. Chem. 284, 6554-6565 (2009); AbdAlla et al., J. Biol. Chem. 284, 6566-6574 (2009)). […]
For Abeta plaque load quantification by immunohistochemistry, paraffin-embedded brain sections (or cryosections) (8 microm, 10-15 sections/brain taken at 30-50 microm intervals) were prepared from brains isolated from 18-month-old Tg2576 mice (Taconic Biosciences, Rensselaer, N.Y., USA) treated for six months without and with Compound-1 and Compound-4 (8 mg/kg body weight/day in drinking water). […]

With `O=C(C1=C(O)C(c2ccccc2)N(c2ccc3c(c2)OCO3)C1=O)C1CC1` (stereo not shown) [Compound-1, 1-(1,3-benzodioxol-5-yl)-4-(cyclopropane-carbonyl)-3-hydroxy-2-phenyl-2H-pyrrol-5-one] the “Abeta plaque load in hippocampus and frontal cortex” value was “significantly retarded the accumulation of Abeta plaques”.
